Patent US20240270722A1, “POLO LIKE KINASE 4 INHIBITORS” (ORIC Pharmaceuticals, Inc., priority 2021, published 2024)

Key:
[1] = target: T1, human recombinant Aurora A (Homo sapiens, UniProt O14965); assay: Aurora A Kinase Biochemical Assay (ADP-Glo); settings: selectivity ratio Aurora A vs PLK4
T1 construct: purchased ThermoFisher PR5935A
T1 sequence (O14965 1-403): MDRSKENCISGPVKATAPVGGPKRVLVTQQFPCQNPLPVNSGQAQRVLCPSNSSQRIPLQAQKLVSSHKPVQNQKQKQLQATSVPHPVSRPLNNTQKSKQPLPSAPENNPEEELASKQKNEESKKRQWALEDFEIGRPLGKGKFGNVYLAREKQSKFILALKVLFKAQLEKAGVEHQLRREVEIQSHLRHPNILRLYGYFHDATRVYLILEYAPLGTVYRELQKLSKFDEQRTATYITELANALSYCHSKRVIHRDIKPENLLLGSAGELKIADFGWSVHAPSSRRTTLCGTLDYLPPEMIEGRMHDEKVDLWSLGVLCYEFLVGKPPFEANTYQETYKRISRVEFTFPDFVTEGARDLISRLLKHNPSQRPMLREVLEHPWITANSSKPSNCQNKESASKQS
Description: (§1) Activity of human recombinant Aurora A (ThermoFisher, cat #PR5935A) was measured by quantification of adenosine diphosphate (ADP) using the ADP-Glo Kinase Assay Kit (Promega, cat #V9102). […] 5 μL of 5.0 nM Aurora A in assay buffer (50 mM HEPES, pH 7.5, 0.01% Brij-35, 0.01% BSA, 10 mM MgCl2, 1 mM EGTA, 1 mM DTT) was added to the plates. Test compounds and Aurora A were incubated for 15 minutes at room temperature (RT). […] Reactions were stopped and the remaining ATP depleted by adding 10 uL of ADP-Glo reagent (Promega, cat #V912B) and incubating for 40 minutes at RT. The simultaneous conversion of the remaining ADP to ATP and measurement of the newly synthesized ATP was achieved by addition of 20 μL Kinase Detection reagent (Promega, cat #V914B), incubation for 30 min at RT, and luminescence detection using the EnVision plate reader (PerkinElmer). […] The IC50 values reported in Table 2 were determined using four parameter non-linear regression curve fit.

[2] = target: T2, human recombinant Aurora B (Homo sapiens, UniProt Q96GD4); assay: Aurora B Kinase Biochemical Assay (ADP-Glo); settings: selectivity ratio Aurora B vs PLK4
T2 construct: purchased ThermoFisher PR9210B
Description: as §1, with “Aurora B” for “Aurora A”, “cat #PR9210B)” for “cat #PR5935A)”, “of 20” for “of 5.0”

[3] = target: T3, human recombinant PLK4 (Homo sapiens, UniProt O00444); assay: PLK4 Biochemical Assay (ADP-Glo)
T3 construct: purchased ThermoFisher 4PV6396
T3 sequence (O00444 1-970): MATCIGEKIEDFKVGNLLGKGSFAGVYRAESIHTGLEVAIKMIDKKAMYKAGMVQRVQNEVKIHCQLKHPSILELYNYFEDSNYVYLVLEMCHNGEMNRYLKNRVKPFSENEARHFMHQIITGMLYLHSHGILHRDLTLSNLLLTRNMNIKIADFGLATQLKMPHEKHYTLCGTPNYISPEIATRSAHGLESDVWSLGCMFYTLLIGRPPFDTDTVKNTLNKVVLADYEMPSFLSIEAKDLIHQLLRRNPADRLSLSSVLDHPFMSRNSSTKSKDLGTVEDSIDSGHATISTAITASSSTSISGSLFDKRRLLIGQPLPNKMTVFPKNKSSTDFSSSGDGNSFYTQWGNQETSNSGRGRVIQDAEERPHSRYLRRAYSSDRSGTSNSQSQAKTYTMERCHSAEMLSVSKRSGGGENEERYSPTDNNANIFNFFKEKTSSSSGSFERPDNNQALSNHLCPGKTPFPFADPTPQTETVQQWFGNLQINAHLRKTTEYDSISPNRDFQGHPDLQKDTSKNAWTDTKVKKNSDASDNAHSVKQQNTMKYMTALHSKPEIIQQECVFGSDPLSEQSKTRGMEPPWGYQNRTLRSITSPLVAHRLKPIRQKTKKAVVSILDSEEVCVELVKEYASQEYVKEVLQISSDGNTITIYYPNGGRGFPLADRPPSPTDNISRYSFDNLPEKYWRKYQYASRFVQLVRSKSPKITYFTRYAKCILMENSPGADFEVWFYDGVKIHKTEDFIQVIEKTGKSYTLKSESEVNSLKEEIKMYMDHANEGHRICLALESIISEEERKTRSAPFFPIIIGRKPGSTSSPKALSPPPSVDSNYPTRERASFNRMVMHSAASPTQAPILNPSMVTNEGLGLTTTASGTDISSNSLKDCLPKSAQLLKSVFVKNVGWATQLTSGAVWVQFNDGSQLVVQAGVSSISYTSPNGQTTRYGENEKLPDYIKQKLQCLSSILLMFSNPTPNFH
Description: 5 μL of 1.0 nM PLK4 protein in assay buffer (50 mM HEPES, pH 7.5, 0.01% Brij-35, 0.01% BSA, 10 mM MgCl2, 1 mM EGTA, 1 mM DTT) was added to the plates. Test compounds and PLK4 were incubated for 15 minutes at room temperature (RT). […] The IC50 values reported in Table 2 were determined using four parameter non-linear regression curve fit.

T2 sequence (Q96GD4 whole entry): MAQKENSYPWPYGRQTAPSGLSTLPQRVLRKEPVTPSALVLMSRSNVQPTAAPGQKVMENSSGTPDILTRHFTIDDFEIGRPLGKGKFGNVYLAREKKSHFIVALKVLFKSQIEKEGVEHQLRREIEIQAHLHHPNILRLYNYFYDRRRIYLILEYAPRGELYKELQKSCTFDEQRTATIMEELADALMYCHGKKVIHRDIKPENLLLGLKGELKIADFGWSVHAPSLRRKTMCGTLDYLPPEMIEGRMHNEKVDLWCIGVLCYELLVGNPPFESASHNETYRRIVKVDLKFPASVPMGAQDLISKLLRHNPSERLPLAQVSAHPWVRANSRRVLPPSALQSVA

Row | SMILES | [Aurora A IC50 (nM)]/[PLK4 IC50 (nM)] [1] | [Aurora B IC50 (nM)]/[PLK4 IC50 (nM)] [2] | IC50 [3]
1 | COc1ccc2c(c1)[C@]1(C[C@H]1c1ccc3c(Nc4nccc5c4OC[C@H]5CO)n[nH]c3c1)C(=O)N2 (single isomer, unassigned) [Example 34] | 893.3126 | 19.96 | 
2 | COc1ccc2c(c1)[C@]1(C[C@H]1c1ccc3c(Nc4ncnc(N5CCOCC5)c4OC(F)F)n[nH]c3c1)C(=O)N2 [Example 109, (1R,2S)-2-(3-{[5-(difluoromethoxy)-6-(morpholin-4-yl)pyrimidin-4-yl]amino}-1H-indazol-6-yl)-5′-methoxyspiro[cyclopropane-1,3′-indol]-2′(1′H)-one] | 50000 |  | 
3 | COc1ccc2c(c1)[C@]1(C[C@H]1c1ccc3c(Nc4cc(OC)c(S(N)(=O)=O)cc4OC)n[nH]c3c1)C(=O)N2 [Example 212, 2,5-Dimethoxy-4-({6-[(1R,2S)-5′-methoxy-2′-oxo-1′,2′-dihydrospiro[cyclopropane-1,3′-indol]-2-yl]-1H-indazol-3-yl}amino)benzene-1-sulfonamide] |  | 280 | 
4 | COc1cnc(C)nc1Nc1n[nH]c2cc([C@@H]3C[C@@]34C(=O)Nc3ccc(OC(F)(F)F)cc34)ccc12 [Example 138, (1R,2S)-2-{3-[(5-methoxy-2-methylpyrimidin-4-yl)amino]-1H-indazol-6-yl}-5′-(trifluoromethoxy)spiro[cyclopropane-1,3′-indol]-2′(1′H)-one] | 70 | 36 | 
5 | COc1cnc(C)nc1Nc1n[nH]c2cc([C@@H]3C[C@@]34C(=O)Nc3ccc(C(F)(F)F)cc34)ccc12 [Example 137, (1R,2S)-2-{3-[(5-methoxy-2-methylpyrimidin-4-yl)amino]-1H-indazol-6-yl}-5′-(trifluoromethyl)spiro[cyclopropane-1,3′-indol]-2′(1′H)-one] | 62 | 72 | 
6 | COc1ccc2c(c1)[C@]1(C[C@H]1c1ccc3c(Nc4ncc(P(C)(C)=O)cc4OC)n[nH]c3c1)C(=O)N2 [Example 225, (1R,2S)-2-(3-{[5-(dimethylphosphoryl)-3-methoxypyridin-2-yl]amino}-1H-indazol-6-yl)-5′-methoxyspiro[cyclopropane-1,3′-indol]-2′(1′H)-one] | 1884.6028 | 381.4972 | 6.12 nM
7 | COc1ccc2c(c1)[C@]1(C[C@H]1c1ccc3c(Nc4nccc5c4OC[C@@H]5CO)n[nH]c3c1)C(=O)N2 (single isomer, unassigned) [Example 33] | 355.9465 | 8.474 | 
8 | COc1cnc(C)nc1Nc1n[nH]c2cc([C@@H]3C[C@]34C(=O)Nc3ccc(OC(F)(F)F)cc34)ccc12 [Example 139, (1S,2S)-2-{3-[(5-methoxy-2-methylpyrimidin-4-yl)amino]-1H-indazol-6-yl}-5′-(trifluoromethoxy)spiro[cyclopropane-1,3′-indol]-2′(1′H)-one] | 7.4 | 9.6 | 
9 | CCOc1cc(S(=O)(=O)NC)cnc1Nc1n[nH]c2cc([C@@H]3C[C@@]34C(=O)Nc3ccc(OC)cc34)ccc12 [Example 275, 5-ethoxy-6-({6-[(1R,2S)-5′-methoxy-2′-oxo-1′,2′-dihydrospiro[cyclopropane-1,3′-indol]-2-yl]-1H-indazol-3-yl}amino)-N-methylpyridine-3-sulfonamide] |  | 230 | 
10 | COc1ccc2c(c1)[C@]1(C[C@H]1c1ccc3c(Nc4nn(C)cc4OC)n[nH]c3c1)C(=O)N2.O=C(O)C(F)(F)F [Example 79, (1R,2S)-5′-methoxy-2-{3-[(4-methoxy-1-methyl-1H-pyrazol-3-yl)amino]-1H-indazol-6-yl}spiro[cyclopropane-1,3′-indol]-2′(1′H)-one] | 210.5378 | 6.986 | 
